Key:
in vivo = conditions: rat, half-life of photosensitizer concentration in the heart
Description: FIG. 46 is a graph showing changes in the photosensitizer concentration in the rat heart at doses of 5 and 2 mg/kg together with changes in plasma concentration in rats and humans.

[1] = tested on: rat atrioventricular node; test: Atrioventricular block experiment by PDT in in vivo system; set-up: species or system Wistar rat
Description: Wistar rats (male, 8 weeks old) were anesthetized by inhalation of diethyl ether, four limbs and front teeth were fixed, a tube was inserted into the bronchial tube, and an artificial ventilator (Natsume Seisakusho Co., Ltd.) and a forane vaporizer anesthesia apparatus (Shinano Instrument, Co., Ltd.) were introduced into the body. Thoracotomy was performed between the right chest rib, and the experiment was performed while the heart was exposed.
A solution obtained by dissolving Laserphyrin in 5 ml of physiological saline was administered to venous blood from the right ventricular cavity. The photosensitizer dose (D) and the interval to photoradiation in each experiment were as follows.
Experiment 1: D=2 mg/kg, laser irradiation at interval of 5 and 60 min
Experiment 2: D=10 mg/kg, laser irradiation at interval of 2 and 30 min
A semiconductor laser beam (SONY, wavelength peak, 670 nm band) was transmitted using a quartz fiber with a laser intensity of 500 mW/cm^2 at the end. The end was attached to a portion in the vicinity of the base of the aorta, and photoradiation was performed towards the atrioventricular node (existing in a portion approx. 3 mm deep from the surface) in the right atrial inner wall for 10 min with the total dose of laser irradiation of 300 J/cm^2 (FIG. 30).
A needle electrode was inserted into four limbs of a rat, electrocardiogram leads I, II, and III were induced with an electrocardiograph (Nihon Kohden Corporation), and signals were recorded using a biosignal recording/analyzing apparatus and analyzed (FIG. 31). FIG. 31 is a schematic view showing an in vivo experimental system.
After completion of the experiment, the rat chest was closed and sutured. Then, a normal feed and water were given and allowed to survive, and anesthetized again at approx. 2 weeks so that electrocardiography should be performed.
The heart sample of Experiment 1 was isolated after electrocardiography at 2 weeks (the isolation method was the same as in Example 6), 4% paraformaldehyde was introduced from the coronary artery, and the perfusion-fixed sample was immersed in approx. 40 ml of the solution and left on a mix roller overnight. Then, a HE sample and an Azan stained specimen at a laser irradiation site were prepared and observed under a microscope.

[2] = human; intravenous injection 1 mg/kg; cited from earlier work
[3] = tested on: isolated right ventricular free wall of a Wistar rat; test: PDT electrical conduction block experiment in ex vivo system
Description: As materials, spread samples of an isolated right ventricular free wall of a Wistar rat (male, 8 to 10 weeks old) were used. The length (L) and the thickness (d) of sample photoradiation lines in each experiment are as follows.
Experiment 1: L=0.9 cm, d=1.5 mm
Experiment 2: L=0.76 cm, d=1.5 mm
Experiment 3: L=1.2 cm, d=1.4 mm
Experiment 4: L=0.88 cm, d=1.4 mm
Tyrode's solution (95% O2 and 5% CO2 gases were passed through, and the temperature was maintained at 37° C. in a constant-temperature apparatus) was used as a perfusion fluid.
Immediately after isolation, the heart was dipped in the perfusion fluid heated at about 37° C., and a right ventricular tissue was ablated. The ablated tissue was fixed on the silicon floor of a tissue bath with a 0.2 mmφ tungsten wire, and then the perfusion fluid was allowed to flow.
Immediately after rats were allowed to inhale vaporized diethyl ether, heparin and Nembutal (0.2 and 0.5 ml, respectively) were administered intraperitoneally, and approx. 0.5 ml of talaporfin sodium (Laserphyrin [registered trade name] Meiji Seika Kaisha, Ltd.) dissolved in physiological saline was intravenously injected from the vena cava of the rat lower extremity. After the heart was isolated, a right ventricular tissue was ablated in a normal Tyrode's solution and fixed in a tissue bath. Then, Tyrode's solutions in which talaporfin sodium was dissolved at various concentrations (see Reference Example 1 described later, set assuming a half of the plasma concentration at each dose and interval as blood concentration) (these are referred to as photosensitizer solutions), and loaded by circulatory perfusion for a period equal to time required from the heart isolation to bath fixation (approx. 10 min), and laser irradiation was performed with surface perfusion. The photosensitizer dose (D), the interval to heart isolation, and the concentration of the photosensitizer solution (c) in each experimental example were as follows.
Experiment 1: D=5 mg/kg; interval, 30 min; c=30 μg/ml
Experiment 2: D=5 mg/kg; interval, 60 min; c=20 μg/ml
Experiment 3: D=2 mg/kg; interval, 30 min; c=12 μg/ml
Experiment 4: D=2 mg/kg; interval, 60 min; c=8 μg/ml
A continuous semiconductor laser beam (SONY, peak wavelength, 670 band) was transmitted with a quartz fiber (core diameter, 800 μm), and the fiber was used virtually in contact with the tissue surface with an output at the end thereof being 5 mW. Laser irradiation was performed while reciprocating the fiber horizontally across the tissue over approx. 1 cm on the tissue surface. The laser irradiation time (T) and the total dose of laser irradiation (It) in each experimental example were as follows.
Experiment 1: T=60 s, It=4.2 J/cm^2
Experiment 2: T=80 s, It=6.6 J/cm^2
Experiment 3: T=267 s, It=14 J/cm^2
Experiment 4: T=500 s, It=36 J/cm^2
0.8-mA electrical stimulus was applied from a bipolar electrode (Unique Medical Co., Ltd., obtained by twining 0.2-mmφ silver chloride wires) with a stimulator and an isolator (Nihon Kohden Corporation) every 300 ms, and two bipolar electrodes for measuring a potential (Unique Medical Co., Ltd., 0.25 mmφ stainless) were placed on the tissue surface to measure a extracellular potential (FIG. 24). […] A signal was led to a bioamplifier (Physio-Tech Co., Ltd., DAM50) and recorded and analyzed using a biosignal recording/analyzing apparatus (AD Instrumens) (FIG. 25). FIG. 25 is a schematic view showing an ex vivo experimental system.
FIGS. 26 to 29 show extracellular potentials before and after PDT a led potential in each experiment. In FIGS. 26 to 29, the upper line (red line) and the lower line (blue line) in one graph represent potentials in X and Y in FIG. 24, respectively. The vertical axis represents voltage.

[4] = Experiment 2: 10 mg/kg, 300 J/cm^2
[5] = Experiment 2: 10 mg/kg, interval 30 min, 300 J/cm^2
[6] = Experiment 1: 5 mg/kg i.v., interval 30 min, 30 μg/ml, 4.2 J/cm^2
[7] = Experiment 2: 5 mg/kg i.v., interval 60 min, 20 μg/ml, 6.6 J/cm^2
[8] = Experiment 3: 2 mg/kg i.v., interval 30 min, 12 μg/ml, 14 J/cm^2
[9] = Experiment 4: 2 mg/kg i.v., interval 60 min, 8 μg/ml, 36 J/cm^2

Structure (SMILES): C=Cc1c(C)c2cc3nc(c(CC(=O)N[C@@H](CC(=O)O)C(=O)O)c4[nH]c(cc5nc(cc1[nH]2)C(C)=C5CC)c(C)c4C(=O)O)[C@@H](CCC(=O)O)[C@@H]3C [talaporfin sodium, mono-L-aspartyl chlorine 6]
- half-life (in vivo; 0 to 60 min): 1.08 h
- half-life (in vivo; later phase): 13.3 h
- electrocardiogram after 2 weeks ([1]; Experiment 1: 2 mg/kg, 300 J/cm^2): the 2:1 atrioventricular block disappeared, and a normal atrioventricular conduction was confirmed
- histology (Azan stain) at laser irradiation site at 2 weeks ([1]; Experiment 1: 2 mg/kg, 300 J/cm^2, FIG. 36): a scar tissue (a damaged cellular tissue was replaced with the surrounding collagenic fibers) is observed
- atrioventricular block (electrocardiogram) ([1]; Experiment 1: 2 mg/kg, interval 5 min, 300 J/cm^2): an atrioventricular block disappeared during the process of photoradiation
- atrioventricular block (electrocardiogram) after photoradiation ([1]; Experiment 1: 2 mg/kg, interval 60 min, 300 J/cm^2): 2:1 atrioventricular block
- completeness of conduction block ([1]; Experiment 1, laser irradiation dose 300 J/cm^2): the conduction block was incomplete
- electrocardiogram at 2 weeks [1, 4]: a finding of a complete atrioventricular block
- time the conduction block effect by PDT was maintained [1, 4]: 2 weeks
- atrioventricular block (electrocardiogram) ([1]; Experiment 2: 10 mg/kg, interval 2 min, 300 J/cm^2): a 2:1 atrioventricular block occurred, but was resolved thereafter
- atrioventricular block (electrocardiogram) [1, 5]: a 2:1 atrioventricular block and a complete atrioventricular block occurred from immediately after photoradiation
- electrocardiogram finding after completion of photoradiation [1, 5]: extrasystoles of the ventricle were observed
- early average half-life in plasma [2]: 14.6 h
- plasma concentration at 10 min [2]: 27000 ng/mL
- electrical conduction block after PDT [3, 6]: an electrical conduction block occurred after PDT
- time the conduction block state was maintained [3, 6]: 3 h
- electrical conduction block after PDT [3, 7]: an electrical conduction block occurred after PDT
- time the conduction block state was maintained [3, 7]: 2 h
- electrical conduction block after PDT [3, 8]: an electrical conduction block occurred after PDT
- time the conduction block state was maintained [3, 8]: 3 h
- electrical conduction block after PDT [3, 9]: an electrical conduction block occurred after PDT
- time the conduction block state was maintained [3, 9]: 3 h
